# pIC50: −log10 of the molar value.
# Tested on: HL60 cells
# Assay: Anti-proliferation on HL60 cells (CellTiter-Glo, 3 days)
# Type: cell-based
# Conditions: Homo sapiens, HL-60, 72 h, 3 days incubation, CTG luminescence, IC50 by XLfit, read-out: HL60 cells Proliferation inhibitory activity
# Protocol: HL60 cells (Cell Bank of Chinese Academy of Sciences) in the logarithmic growth phase were counted and plated evenly in a 96-well transparent bottom white plate at 20000 cells per well and 100 μL per well.
# A certain amount of the compound of the present invention was weighed and diluted with DMSO to a 10 mM stock solution. The culture medium RPMI-1640 (meilunbio, MA0215) corresponding to the cells were taken, and the compound was diluted to the concentration required by the test, shaken gently and mixed evenly. 50 μL of the gradient dilution of the diluted compound was added to each well of the plated cells, and 50 μL of 0.1% DMSO was added to the control group. The plate was shaken gently, mixed evenly and incubated in a cell culture incubator for 3 days.
# • 3.1 The CellTiter-Glo™ (CTG) (purchased from Promega, Cat. No. G9242) reagent was taken in advance from the −20° C. refrigerator and equilibrated to room temperature in the dark. Cell Titer-Glo buffer and Cell Titer-Glo substrate were mixed at a ratio of 1:1 to prepare a CTG detection reagent. • 3.2 The 96-well plate was taken out and inspected under a microscope for growth. • 3.3 The bottom of the 96-well plate was tagged with white paper, and then the plate was wrapped with tin foil paper, shaken at 37° C. at 300 r for 10 min and mixed evenly. • 3.4. 50 μL of CTG detection reagent was added to each well, Luminescence signal was detected using a microplate reader Biotek Synergy Hi, and the inhibition rate was calculated. IC50 values of the compounds were calculated by XLfit 5.5.0 software to evaluate the proliferation inhibitory activity on HL60 cells.
row,Compound,pIC50
1,Cc1cc(Cl)cc(-c2cnc(N3CCC(CNCc4ccc5c(c4)CN(C4CCC(=O)NC4=O)C5=O)CC3)c(C(F)(F)F)c2)c1 (stereo not drawn) [Compound A114],7.96
2,O=C1CCC(N2C(=O)c3cccc4c(CNCC5CCN(c6ncc(-c7cccc(Cl)c7)cc6C(F)(F)F)CC5)ccc2c34)C(=O)N1 (stereo not drawn) [Compound A174],5.41
3,O=C1CCC(c2coc3cc(CNCC4CCN(c5ncc(-c6cccc(Cl)c6)cc5C(F)(F)F)CC4)ccc23)C(=O)N1 (stereo not drawn) [Compound A149],5.76
4,Cc1nc2ccc(CNCC3CCN(c4ncc(-c5cccc(Cl)c5)cc4C(F)(F)F)CC3)cc2c(=O)n1C1CCC(=O)NC1=O (stereo not drawn) [Compound A151],6.16
5,O=C1CCC(N2Cc3cc(NC(=O)CC4CCN(c5ncc(-c6ccccc6Cl)cn5)CC4)ccc3C2=O)C(=O)N1 (stereo not drawn) [Compound A54],> 9.70
6,O=C1CCC(N2Cc3cc(C(=O)NCC4CCN(c5cncc(-c6cccc7ccccc67)c5)CC4)ccc3C2=O)C(=O)N1 (stereo not drawn) [Compound A18],8.26
7,O=C1CCC(n2c(C3CC3)nc3cc(CNCC4CCN(c5ncc(-c6cccc(Cl)c6)cc5C(F)(F)F)CC4)ccc3c2=O)C(=O)N1 (stereo not drawn) [Compound A153],4.94
8,O=C1CCC(N2Cc3cc(CNCC4CCN(c5ncc(-c6cccc(Cl)c6)cc5C(F)(F)F)CC4)ncc3C2=O)C(=O)N1 (stereo not drawn) [Compound A142],6.40
9,O=C1CCC(N2Cc3cc(C(=O)NCC4CCN(c5ccnc(-c6cccc7ccccc67)n5)CC4)ccc3C2=O)C(=O)N1 (stereo not drawn) [Compound A20],7.68
10,O=C1CCC(N2Cc3cc(NC(=O)CC4CCN(c5cnc(-c6cccc7ccccc67)cn5)CC4)ccc3C2=O)C(=O)N1 (stereo not drawn) [Compound A31],> 9.70
11,O=C1CCC(N2Cc3cc(NC(=O)CC4CCN(c5ccc(-c6cccc(Cl)c6)cn5)CC4)ccc3C2=O)C(=O)N1 (stereo not drawn) [Compound A56],> 9.70
12,O=C1CCC(N2Cc3cc(NC(=O)CC4CCN(c5cnc(-c6cccc7ccccc67)nc5)CC4)ccc3C2=O)C(=O)N1 (stereo not drawn) [Compound A33],9.52
13,O=C1CC[C@@H](N2Cc3cc(CNCC4CCN(c5ncc(-c6cccc(F)c6)cc5F)CC4)ccc3C2=O)C(=O)N1 [Compound A126],8.17
14,O=C1CCC(N2Cc3cc(C(=O)NCC4CCN(c5ncc(-c6cccc(Cl)c6)cn5)CC4)ccc3C2=O)C(=O)N1 (stereo not drawn) [Compound A52],8.85
15,O=C(CN1CCC(CC(=O)Nc2ccc3c(c2)CN(C2CCC(=O)NC2=O)C3=O)CC1)NCCn1c2ccccc2c2cccnc21 (stereo not drawn) [Compound A8],7.85
16,O=C1CCC(N2C(=O)c3cc4c(cc3C2=O)CN(CC2CCN(c3ncc(-c5cccc(Cl)c5)cc3C(F)(F)F)CC2)C4)C(=O)N1 (stereo not drawn) [Compound A138],5.96
17,O=C1CCC(N2Cc3c(ccc(CNCC4CCN(c5ncc(-c6cccc(Cl)c6)cc5C(F)(F)F)CC4)c3F)C2=O)C(=O)N1 (stereo not drawn) [Compound A139],7.75
18,O=C1CCC(N2Cc3cc(NC(=O)CC4CCN(c5cccc(-c6cccc7ccccc67)c5)CC4)ccc3C2=O)C(=O)N1 (stereo not drawn) [Compound A22],8.40
19,Cc1ccc(N2CCN(Cc3ccc(C(=O)NCc4ccc5c(c4)CN(C4CCC(=O)NC4=O)C5=O)cc3)CC2)cc1Cl (stereo not drawn) [Compound A130],9.27
20,O=C1CCC(N2Cc3cc(C(=O)NCC4CCN(c5ncc(-c6cccc7ccccc67)o5)CC4)ccc3C2=O)C(=O)N1 (stereo not drawn) [Compound A27],8.43
21,COc1cccc(-c2cnc(N3CCC(F)(CNCc4ccc5c(c4)CN(C4CCC(=O)NC4=O)C5=O)CC3)c(F)c2)c1 (stereo not drawn) [Compound A120],8.61
22,O=C1CCC(N2Cc3cc(C(=O)NCC4CCN(c5ncc(-c6cccc7ccccc67)s5)CC4)ccc3C2=O)C(=O)N1 (stereo not drawn) [Compound A23],9.70
23,O=C1CC[C@H](N2Cc3cc(CNCC4CCN(c5ncc(-c6cccc(F)c6)cc5F)CC4)ccc3C2=O)C(=O)N1 [Compound A125],8.61

row,Compound,pIC50
1,CN(C)c1cc(-c2cccc(Cl)c2)cnc1N1CCC(CNCc2ccc3c(c2)CN(C2CCC(=O)NC2=O)C3=O)CC1 (stereo not drawn) [Compound A79],> 9.70
2,O=C1C[C@@H](N2Cc3cc(CNCC4CCN(c5ncc(-c6cccc(Cl)c6)cc5C(F)(F)F)CC4)ccc3C2=O)C(=O)N1 [Compound A171],5.81
3,O=C1CCC(N2Cc3cc(CNCC4CCN(c5ncc(-c6cccc(OC(F)(F)F)c6)cc5C(F)(F)F)CC4)ccc3C2=O)C(=O)N1 (stereo not drawn) [Compound A96],8.74
4,O=C1CCC(NC(=O)Cc2ccc(CNCC3CCN(c4ncc(-c5cccc(Cl)c5)cc4C(F)(F)F)CC3)cc2)C(=O)N1 (stereo not drawn) [Compound A167],5.02
5,COc1cc(Cl)cc(-c2cnc(N3CCC(CNCc4ccc5c(c4)CN(C4CCC(=O)NC4=O)C5=O)CC3)c(C(F)(F)F)c2)c1 (stereo not drawn) [Compound A113],8.52
6,Cc1cc(-c2cccc(Cl)c2)cnc1N1CCC(CNCc2ccc3c(c2)CN(C2CCC(=O)NC2=O)C3=O)CC1 (stereo not drawn) [Compound A76],> 9.70
7,O=C1CCC(N2Cc3cc(NC(=O)CC4CCN(c5ncc(-c6ccccn6)cn5)CC4)ccc3C2=O)C(=O)N1 (stereo not drawn) [Compound A59],9.15
8,O=C1CCC(N2Cc3cc(C(=O)NCC4CCN(c5cccc(-c6cccc7ccccc67)c5)CC4)ccc3C2=O)C(=O)N1 (stereo not drawn) [Compound A21],8.54
9,O=C1CCC(N2Cc3cc(C(=O)NCC4CCN(c5ccc(-c6cccc7cccnc67)nc5)CC4)ccc3C2=O)C(=O)N1 (stereo not drawn) [Compound A44],8.30
10,Cn1nc(N2CCC(=O)NC2=O)c2ccc(CNCC3CCN(c4ncc(-c5cccc(Cl)c5)cc4C(F)(F)F)CC3)cc21 [Compound A177],5.36
11,O=C1CCC(N2Cc3cc(CCCN4CCN(c5ncc(-c6cccc(Cl)c6)cc5C(F)(F)F)CC4)ccc3C2=O)C(=O)N1 (stereo not drawn) [Compound A135],7.59
12,O=C1CCC(N2Cc3cc(CNCC4CC5CCC(C4)N5c4ncc(-c5cccc(Cl)c5)cc4C(F)(F)F)ccc3C2=O)C(=O)N1 (stereo not drawn) [Compound A90],7.34
13,O=C1CCC(N2Cc3cc(NC(=O)CC4CCN(c5ncc(-c6ccccc6)cn5)CC4)ccc3C2=O)C(=O)N1 (stereo not drawn) [Compound A51],> 9.70
14,Cn1nc(N2CCC(=O)NC2=O)c2cc(CNCC3CCN(c4ncc(-c5cccc(Cl)c5)cc4C(F)(F)F)CC3)ccc21 [Compound A176],5.28
15,O=C1CCC(N2Cc3cc(NC(=O)CC4CCN(c5ncc(-c6ccncc6)cn5)CC4)ccc3C2=O)C(=O)N1 (stereo not drawn) [Compound A60],7.22
16,O=C1C[C@H](N2Cc3cc(CNCC4CCN(c5ncc(-c6cccc(F)c6)cc5C(F)(F)F)CC4)ccc3C2=O)C(=O)N1 [Compound A172],5.00
17,COc1cccc(-c2cnc(N3CCC(F)(C(=O)NCc4ccc5c(c4)CN(C4CCC(=O)NC4=O)C5=O)CC3)c(F)c2)c1 (stereo not drawn) [Compound A119],8.96
18,O=C1CCC(N2Cc3cc(CNCC4CCN(c5ncc(-c6cccc(Cl)c6)cc5F)CC4(F)F)ccc3C2=O)C(=O)N1 (stereo not drawn) [Compound A88],9.10
19,O=C1CCC(NCc2ccc(CNCC3CCN(c4ncc(-c5cccc(Cl)c5)cc4C(F)(F)F)CC3)cc2)C(=O)N1 (stereo not drawn) [Compound A165],5.02
20,O=C1CCC(N2Cc3cc(NC(=O)CC4CCN(c5ccc(-c6cccc(C(F)(F)F)c6)cn5)CC4)ccc3C2=O)C(=O)N1 (stereo not drawn) [Compound A58],> 9.70
21,O=C1CCC(n2cc(-c3ccc(CNCC4CCN(c5ncc(-c6cccc(Cl)c6)cc5C(F)(F)F)CC4)cc3)nn2)C(=O)N1 (stereo not drawn) [Compound A168],6.96
22,O=C1CCC(NS(=O)(=O)c2ccc(CNCC3CCN(c4ncc(-c5cccc(Cl)c5)cc4C(F)(F)F)CC3)cc2)C(=O)N1 (stereo not drawn) [Compound A164],5.14
